Data on 24 compounds can be found in ChEMBL document CHEMBL1139149, “Discovery of tertiary aminoacids as dual PPARalpha/gamma agonists-I” (Bioorg Med Chem Lett, 2007).

The target of series [1] is T1, Peroxisome proliferator-activated receptor gamma (Homo sapiens, UniProt P37231).
T1 sequence (P37231 whole entry): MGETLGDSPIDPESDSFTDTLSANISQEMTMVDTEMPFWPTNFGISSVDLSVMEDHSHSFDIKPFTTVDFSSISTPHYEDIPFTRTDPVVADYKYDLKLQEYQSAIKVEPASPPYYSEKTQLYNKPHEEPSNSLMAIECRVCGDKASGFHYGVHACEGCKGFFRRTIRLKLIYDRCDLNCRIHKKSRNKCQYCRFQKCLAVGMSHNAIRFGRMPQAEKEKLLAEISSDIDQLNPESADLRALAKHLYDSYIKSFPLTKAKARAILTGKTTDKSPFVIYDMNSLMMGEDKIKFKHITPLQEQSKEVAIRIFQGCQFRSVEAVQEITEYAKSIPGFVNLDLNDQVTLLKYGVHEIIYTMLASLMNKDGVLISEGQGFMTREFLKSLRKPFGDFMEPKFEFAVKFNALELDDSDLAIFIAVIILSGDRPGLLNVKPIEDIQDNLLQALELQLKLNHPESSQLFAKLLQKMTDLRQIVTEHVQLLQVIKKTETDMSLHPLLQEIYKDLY
Put plainly: (§1) Displacement of fluorescein labeled ligand from PPARgamma receptor by fluorescence polarization assay. (In fluorescence polarisation assays a small probe gives low polarisation when free and higher when bound to something large.)

Series [2] has as its target T2, Peroxisome proliferator-activated receptor alpha (Homo sapiens, UniProt Q07869).
T2 sequence (Q07869 whole entry): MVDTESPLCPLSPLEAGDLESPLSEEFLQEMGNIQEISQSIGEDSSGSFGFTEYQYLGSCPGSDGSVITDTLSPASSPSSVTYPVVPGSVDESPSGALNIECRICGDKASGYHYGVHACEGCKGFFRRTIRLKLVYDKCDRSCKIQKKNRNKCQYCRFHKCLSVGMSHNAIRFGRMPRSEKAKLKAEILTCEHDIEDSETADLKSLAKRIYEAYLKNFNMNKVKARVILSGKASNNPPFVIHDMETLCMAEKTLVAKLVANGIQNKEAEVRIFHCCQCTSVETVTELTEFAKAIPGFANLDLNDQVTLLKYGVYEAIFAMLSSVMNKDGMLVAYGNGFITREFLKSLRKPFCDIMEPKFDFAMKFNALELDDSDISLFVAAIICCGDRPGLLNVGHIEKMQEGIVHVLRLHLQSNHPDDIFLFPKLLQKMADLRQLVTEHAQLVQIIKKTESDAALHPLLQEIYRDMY
In words: Agonist activity at PPARalpha receptor expressed in HEK293 cells by GAL4 transactivation assay. Format: functional, cell-based.

Series [3] deals with T3, Peroxisome proliferator-activated receptor alpha (Homo sapiens) (UniProt Q07869).
T3 sequence (whole entry): T2 sequence (Q07869 whole entry)
In words: Intrinsic activity at PPARalpha receptor expressed in HEK293 cells at 1 uM by GAL4 transactivation assay relative to GW-2331. It is filed as cell-based.

In series [4] the target is T1, Peroxisome proliferator-activated receptor gamma.
Description: Agonist activity at PPARgamma receptor expressed in HEK293 cells by GAL4 transactivation assay
Series [5] has as its target T2, Peroxisome proliferator-activated receptor alpha. Put plainly: Displacement of fluorescein labeled ligand from PPARalpha receptor by fluorescence polarization assay.
A short description of series [6]: Permeability from apical to basolateral side of Caco-2 cell membrane at pH 6.5. As to conditions: human, Caco-2, pH 6.5; read-out: permeability. Format: ADME, cell-based.
A short description of series [7]: Metabolic stability in mouse liver microsomes after 10 mins. It is filed as ADME, Microsome. As to conditions: read-out: Stability. Background: Liver microsomes are vesicles of endoplasmic reticulum, rich in cytochrome P450 enzymes.
In series [8] the test system is Mus musculus. Put plainly: Antidiabetic activity in db/db mouse assessed as changes in triglyceride level at 10 mg/kg, po qd for 14 days. It is filed as functional.
Series [9] has as its system Mus musculus. Put plainly: Antidiabetic activity in db/db mouse assessed as changes in glucose level at 10 mg/kg, po qd for 14 days. Format: functional.
Series [10] deals with Mus musculus. Put plainly: Antidiabetic activity in db/db mouse assessed as changes in free fatty acid level at 10 mg/kg, po qd for 14 days. It is filed as functional.
Series [11] concerns Mus musculus. In words: Antidiabetic activity in db/db mouse assessed as changes in insulin level at 10 mg/kg, po qd for 14 days. Format: functional.
Series [12] is described as follows: Permeability from apical to basolateral side of Caco-2 cell membrane at pH 5.5. It is filed as ADME, cell-based. The settings on record: human, Caco-2, pH 5.5; read-out: permeability.
Series [13] in a line: Permeability from apical to basolateral side of Caco-2 cell membrane at pH 7.4. The settings on record: human, Caco-2, pH 7.4; read-out: permeability. It is filed as ADME, cell-based. A general note: Caco-2 cells form a polarised layer with tight junctions and transporters.
In series [14] the target is T4, Peroxisome proliferator-activated receptor gamma (Homo sapiens) (UniProt P37231).
T4 sequence (whole entry): T1 sequence (P37231 whole entry)
Described as §1.

The source made the active and inactive calls. The rule behind the calls is not given here.

A word on the IC50: it is the concentration at which inhibition is half-maximal. Read a high IC50 as lower potency. By EC50 is commonly meant the concentration giving half of the maximal effect. A low value points to greater potency.

In the case of `Cc1oc(-c2ccccc2)nc1CCOc1ccc(CN(CC(=O)O)Cc2ccccn2)cc1`, the IC50 in series [1] came out at 2900 nM. For the same compound, the 50% effective concentration (EC50) came out at 692 nM in [2] and 230 nM in series [4]. Also, the Intrinsic activity in series [3] is 12%.

For `Cc1oc(-c2ccccc2)nc1CCOc1cccc(CN(CCc2ccccc2)CC(=O)O)c1`, the IC50 in series [1] came to 134 nM; in series [5], 75 nM. Further, the EC50 in series [2] turned out to be 44 nM; in series [4], 108 nM. For the same compound, the Intrinsic activity in series [3] was found to be 82%.

Regarding `Cc1oc(-c2ccccc2)nc1CCOc1ccc(CN(CC(=O)O)Cc2ccc(Oc3ccccc3)cc2)cc1`, the values for the IC50 in [1] and in [5] were 227 nM and 970 nM, respectively. Moreover, the EC50 in series [2] was determined as 35 nM; in [4], 52 nM. For the same compound, the Intrinsic activity in series [3] was 59%. Besides, the Papp A→B in series [6] is less than 1.5 ×10⁻⁶ cm/s. The remaining at 10 min in series [7] was 46%.

In the case of `Cc1oc(-c2ccccc2)nc1CCOc1cccc(CN(CC(=O)O)Cc2cc3ccccc3[nH]2)c1`, the IC50 in series [1] turned out to be 540 nM; in [5], 246 nM. The EC50 in [2] was found to be 197 nM; in series [4], 759 nM. Further, in [3], the Intrinsic activity was 62%.

`Cc1oc(-c2ccccc2)nc1CCOc1cccc(CN(CC(=O)O)Cc2ccc(OCc3ccccc3)cc2)c1`: the results for the IC50 in series [1] and in series [5] were 183 nM and 387 nM, respectively. The results for the EC50 in [2] and in series [4] were 324 nM and 412 nM, respectively. For the same compound, the Intrinsic activity in series [3] amounted to 56%.

Turning to `Cc1oc(-c2ccccc2)nc1CCOc1cccc(CN(CC(=O)O)Cc2cccc3ccccc23)c1`, the half-inhibitory concentration (IC50) is 67 nM in series [1] and 34 nM in series [5]. Moreover, the values for the EC50 in series [2] and in series [4] were 5 nM and 36 nM, respectively. Besides, the Intrinsic activity in series [3] was 85%.

For the compound `Cc1oc(-c2ccccc2)nc1CCOc1ccc(CN(CC(=O)O)Cc2cccc(Oc3ccccc3)c2)cc1`, the IC50 in series [1] was 480 nM; in [5], 88 nM. The figures for the 50% effective concentration (EC50) in series [2] and in [4] were 4 nM and 391 nM, respectively. For the same compound, the Intrinsic activity in series [3] came out at 107%.

As to `Cc1oc(-c2ccccc2)nc1CCOc1cccc(CN(CCCc2ccccc2)CC(=O)O)c1`, the results for the IC50 in series [1] and in [5] were 773 nM and 51 nM, respectively. Also, the results for the EC50 in [2] and in [4] were 47 nM and 901 nM, respectively. Further, the Intrinsic activity in [3] came out at 62%.

`Cc1oc(-c2ccccc2)nc1CCOc1cccc(CN(CC(=O)O)Cc2ccccc2)c1`: the results for the IC50 in [1] and in series [5] were 240 nM and 90 nM, respectively. For the same compound, the EC50 in series [2] came out at 22 nM; in [4] it was 295 nM. The Intrinsic activity in [3] was 72%. For the same compound, the Activity is given as -29% in series [8], -31% in series [9], -22% in series [10] and -40% in series [11]. Moreover, the remaining at 10 min in [7] is 84%. Also, the Papp A→B in series [12] was 25.1 ×10⁻⁶ cm/s; in series [13] it was 22.5 ×10⁻⁶ cm/s.

Take `Cc1oc(-c2ccccc2)nc1CCOc1ccc(CN(CCOCc2ccccc2)CC(=O)O)cc1`: the IC50 in [1] was determined as 4560 nM; in series [5], 1800 nM. For the same compound, the EC50 is 726 nM in series [2] and 1180 nM in [4]. The Intrinsic activity in series [3] came to 56%.

`Cc1oc(-c2ccccc2)nc1CCOc1ccc(CN(CC(=O)O)Cc2ccccc2)cc1` yielded an IC50 in [1] of 1770 nM. Besides, the EC50 came to 4020 nM in [2] and 3600 nM in series [4]. Moreover, the Intrinsic activity in series [3] is 24%.

As to `Cc1oc(-c2ccccc2)nc1CCOc1cccc(CN(CC(=O)O)Cc2ccc3ccccc3c2)c1`, the IC50 in series [1] is 145 nM; in series [5], 149 nM. In addition, the concentration giving a half-maximal response (EC50) in series [2] amounted to 313 nM; in [4] it was 1390 nM. The Intrinsic activity in series [3] is 65%.

`Cc1oc(-c2ccccc2)nc1CCOc1ccc(CN(CC(=O)O)Cc2ccc(OCc3ccccc3)cc2)cc1`: the values for the IC50 in series [1] and in [5] were 284 nM and 1050 nM, respectively. Also, the EC50 turned out to be 189 nM in [2] and 221 nM in [4]. Also, the Intrinsic activity in [3] turned out to be 106%.

With `Cc1oc(-c2ccccc2)nc1CCOc1ccc(CN(CC(=O)O)Cc2ccc3ccccc3c2)cc1`, the IC50 worked out at 1210 nM in series [1] and 680 nM in series [5]. Further, the values for the EC50 in [2] and in [4] were 618 nM and 1210 nM, respectively. In addition, the Intrinsic activity in series [3] was found to be 39%.

Consider `CCC(CC)CN(CC(=O)O)Cc1ccc(OCCc2nc(-c3ccccc3)oc2C)cc1`, for which, in [14], the outcome was inactive. Also, the Intrinsic activity in series [3] stood at 8%. This compound had an EC50 in series [4] of 1800 nM.

On to `Cc1oc(-c2ccccc2)nc1CCOc1ccc(CN(CC(=O)O)Cc2ccc(-c3ccccc3Cl)o2)cc1`, for which the values for the IC50 in series [1] and in series [5] were 280 nM and 1800 nM, respectively. Moreover, the figures for the EC50 in series [2] and in [4] were 871 nM and 267 nM, respectively. In series [3], the Intrinsic activity came to 55%.

Take `Cc1oc(-c2ccccc2)nc1CCOc1ccc(CN(CC(=O)O)Cc2ccc3c(c2)OCO3)cc1`: the IC50 turned out to be 3290 nM in series [1] and 1800 nM in series [5]. Further, the EC50 in series [2] was determined as 128 nM; in series [4], 307 nM. Moreover, the Intrinsic activity in series [3] turned out to be 77%.

In the case of `CCCCCCCN(CC(=O)O)Cc1ccc(OCCc2nc(-c3ccccc3)oc2C)cc1`, the IC50 in series [1] turned out to be 2300 nM; in [5], 1050 nM. Moreover, the figures for the EC50 in [2] and in series [4] were 180 nM and 136 nM, respectively. For the same compound, the Intrinsic activity in series [3] is 63%.

Turning to `COc1ccc(OC(=O)N(CC(=O)O)Cc2ccc(OCCc3nc(-c4ccccc4)oc3C)cc2)cc1` [MURAGLITAZAR], the Activity is recorded as -50% in series [8], -50% in series [9], -69% in series [10] and -67% in [11].

Turning to `Cc1oc(-c2ccccc2)nc1CCOc1ccc(CN(CC(=O)O)Cc2cccc3ccccc23)cc1`, the IC50 in series [1] was 767 nM; in series [5], 140 nM. Moreover, the EC50 worked out at 21 nM in series [2] and 840 nM in series [4]. Moreover, the Intrinsic activity in series [3] was 90%.

On to `Cc1oc(-c2ccccc2)nc1CCOc1ccc(C[C@H](Nc2ccccc2C(=O)c2ccccc2)C(=O)O)cc1`, for which the Intrinsic activity in [3] came out at 59%.

`CCCCCCCN(CCc1ccc(O[C@@](C)(CC)C(=O)O)cc1)C(=O)Nc1ccc(F)cc1F`: the IC50 stood at 670 nM in series [1] and 348 nM in series [5]. The EC50 is 71 nM in series [2] and 249 nM in series [4]. For the same compound, the Intrinsic activity in series [3] stood at 79%.

For `Cc1oc(-c2ccccc2)nc1CCOc1cccc(CN(CC(=O)O)Cc2cccc(Oc3ccccc3)c2)c1`, the results for the IC50 in [1] and in series [5] were 110 nM and 83 nM, respectively. The values for the EC50 in [2] and in series [4] were 62 nM and 359 nM, respectively. Besides, the Intrinsic activity in [3] stood at 95%.

Turning to `Cc1oc(-c2ccccc2)nc1CCOc1cccc(CN(CC(=O)O)Cc2ccc(Oc3ccccc3)cc2)c1`, the IC50 is 230 nM in [1] and 110 nM in series [5]. Also, the EC50 in series [2] was determined as 30 nM; in series [4], 67 nM. The Intrinsic activity in series [3] was 67%.
